Test results published in ChEMBL document CHEMBL1127108, “Synthesis of ecdysteroid inhibitors of ecdysone biosynthesis. Inhibition of the C-25 hydroxylation” (1993).

Legend:
Locusta migratoria [1] = assay: In vitro inhibitory activity of compound on ecdysone biosynthesis in larval prothoracic glands of Locusta migratoria; NI: No inhibition was observed; assay type: functional
Locusta migratoria [2] = assay: In vitro inhibitory activity of compound on ecdysone biosynthesis in larval prothoracic glands of Locusta migratoria at 10e-5 M concentration; assay type: functional

Row | Compound | inhibition (Locusta migratoria [1]) | inhibition at 10 µM (Locusta migratoria [2])
1 | CC(C1CCC2C3CC=C4C[C@@H](O)CC[C@]4(C)C3CC[C@@]21C)[C@@H](O)C#C[Si](C)(C)C (stereo not given in full) | No inhibition | 
2 | C#CC[C@H](O)C(C)C1CC[C@H]2[C@@H]3CC=C4C[C@@H](O)CC[C@]4(C)[C@H]3CC[C@]12C (stereo not given in full) |  | 37%
3 | C#CC[C@@H](O)C(C)C1CCC2C3CC=C4C[C@@H](O)CC[C@]4(C)C3CC[C@@]21C (stereo not given in full) |  | 66%
4 | C#CC[C@@H](O)C(C)C1CC[C@H]2[C@@H]3CC=C4C[C@@H](O)CC[C@]4(C)[C@H]3CC[C@]12C (stereo not given in full) |  | 36%
5 | C#C[C@H](O)C(C)C1CCC2C3CC=C4C[C@@H](O)CC[C@]4(C)C3CC[C@@]21C (stereo not given in full) |  | 36%
